In one data set the target is T1, NKTR (Homo sapiens, UniProt P30414).
T1 construct: NKTR (UniProtKB Entry P30414: residues 7–179); host or cells: E. coli BL21(DE3)
T1 sequence (P30414 7-179): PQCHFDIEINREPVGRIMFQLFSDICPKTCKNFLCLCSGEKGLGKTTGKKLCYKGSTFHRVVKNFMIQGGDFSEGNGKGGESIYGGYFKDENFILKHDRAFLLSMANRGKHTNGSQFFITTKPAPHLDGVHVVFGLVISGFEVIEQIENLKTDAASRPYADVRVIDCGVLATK
In words: Chymotrypsin coupled prolyl-isomerase assay. It counts as biochemical. To be noted: for NKTR prolyl-isomerase assay raw dose-response value: Fig. 3b source data, replicates; for IC50: wild-type NKTR, read-out: Wild-Type Cyclophilin Prolyl Isomerase Inhibition IC50 Values, NKTR.

The next data set has as its target T2, CypA E81S/K82R (Homo sapiens, UniProt P62937, E81S/K82R).
T2 construct: Lane 12- SNA-CypA E81S/K82R (1-165);; His6 tag with TEV site (2BT vector); SNA remnant stays on the N-terminus (N, cleaved yes); made in house; host or cells: E. coli BL21(DE3)
Briefly: Chymotrypsin coupled prolyl-isomerase assay. Format: biochemical. The following applies: mutant CypA E81S/K82R; read-out: Mutant Cyclophilin Prolyl Isomerase Inhibition IC50 Values, CypA E81S/K82R. The procedure, abridged: (§1)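 Cyclophilin (5 nM final) in 25 mM HEPES pH 7.3, 100 mM NaCl, 0.01% Triton X-100 was preincubated with compound (0.25% DMSO) 5 min at 2–3 °C, then with 25 µM α-chymotrypsin 5 min. Suc-AAPF-AMC (5 µM, in LiCl/trifluoroethanol) started the reaction; AMC fluorescence read every 1 s for 330 s.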

A further data set addresses T3, CypC (Homo sapiens, UniProt P45877).
T3 construct: PPIC (UniProtKB Entry P45877: residues 24–212); host or cells: E. coli BL21(DE3)
In words: Chymotrypsin coupled prolyl-isomerase assay. Format: biochemical. To be noted: for CypC prolyl-isomerase assay raw dose-response value: Fig. 3b source data, replicates; for IC50: wild-type CypC, read-out: Wild-Type Cyclophilin Prolyl Isomerase Inhibition IC50 Values, CypC. In short, it runs like this:
as §1

A further data set concerns the target T4, CypD K118E (Homo sapiens, UniProt P30405, K118E).
T4 construct: made in house; host or cells: E. coli BL21(DE3)
In words: Chymotrypsin coupled prolyl-isomerase assay. Format: biochemical. To be noted: for IC50: prolyl-isomerase inhibition. In short, it runs like this:
as §1

The target in a further data set is T5, CypD R124K (Homo sapiens, UniProt P30405, R124K).
T5 construct: made in house; host or cells: E. coli BL21(DE3)
T5 sequence (P30405 45-207 R124K): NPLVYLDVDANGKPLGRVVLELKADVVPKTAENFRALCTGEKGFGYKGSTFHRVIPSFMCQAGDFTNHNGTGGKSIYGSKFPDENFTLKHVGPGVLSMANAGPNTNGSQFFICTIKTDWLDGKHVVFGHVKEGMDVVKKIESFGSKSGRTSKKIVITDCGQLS
In words: Chymotrypsin coupled prolyl-isomerase assay. To be noted: mutant CypD R124K; read-out: Mutant Cyclophilin Prolyl Isomerase Inhibition IC50 Values, CypD R124K. Format: biochemical. In short, it runs like this:
as §1

For the next data set, the target named is T6, CypD R124A (Homo sapiens, UniProt P30405, R124A).
T6 construct: made in house; host or cells: E. coli BL21(DE3)
T6 sequence (P30405 45-207 R124A): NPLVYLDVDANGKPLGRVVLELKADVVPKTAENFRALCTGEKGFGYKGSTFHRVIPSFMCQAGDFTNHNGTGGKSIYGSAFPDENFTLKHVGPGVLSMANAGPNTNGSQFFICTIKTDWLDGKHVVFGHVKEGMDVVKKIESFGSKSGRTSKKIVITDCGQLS
In words: Chymotrypsin coupled prolyl-isomerase assay. It counts as biochemical. In short, it runs like this: as §1

In a further data set the target is T7, CypE (Homo sapiens, UniProt Q9UNP9).
T7 construct: PPIE (UniProtKB Entry Q9UNP9: residues 131–301); host or cells: E. coli BL21(DE3)
T7 sequence (Q9UNP9 131-301): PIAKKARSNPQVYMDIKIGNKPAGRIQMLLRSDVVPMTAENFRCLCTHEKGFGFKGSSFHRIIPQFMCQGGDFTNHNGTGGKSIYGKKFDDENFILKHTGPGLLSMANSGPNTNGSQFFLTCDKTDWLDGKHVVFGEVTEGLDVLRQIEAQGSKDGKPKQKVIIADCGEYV
Briefly: Chymotrypsin coupled prolyl-isomerase assay. Format: biochemical. To be noted: for CypE prolyl-isomerase assay raw dose-response value: Fig. 3b source data, replicates; for IC50: wild-type CypE, read-out: Wild-Type Cyclophilin Prolyl Isomerase Inhibition IC50 Values, CypE. The procedure, abridged:
as §1

In the next data set the target is T8, CypD K118A (Homo sapiens, UniProt P30405, K118A).
T8 construct: made in house; host or cells: E. coli BL21(DE3)
T8 sequence (P30405 45-207 K118A): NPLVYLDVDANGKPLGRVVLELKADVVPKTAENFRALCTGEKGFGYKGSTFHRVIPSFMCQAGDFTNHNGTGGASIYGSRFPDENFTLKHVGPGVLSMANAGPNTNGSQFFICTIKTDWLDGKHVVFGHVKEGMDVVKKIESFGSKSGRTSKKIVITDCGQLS
Briefly: Chymotrypsin coupled prolyl-isomerase assay. It counts as biochemical. The following applies: prolyl-isomerase inhibition. The procedure, abridged: as §1

For another data set, the target named is T9, CypB (Homo sapiens, UniProt P23284).
T9 construct: PPIB (UniProtKB Entry P23284: residues 34–216); His6 with TEV site (2BT vector leader) (N); made in house; host or cells: E. coli BL21(DE3)
T9 sequence (P23284 34-216): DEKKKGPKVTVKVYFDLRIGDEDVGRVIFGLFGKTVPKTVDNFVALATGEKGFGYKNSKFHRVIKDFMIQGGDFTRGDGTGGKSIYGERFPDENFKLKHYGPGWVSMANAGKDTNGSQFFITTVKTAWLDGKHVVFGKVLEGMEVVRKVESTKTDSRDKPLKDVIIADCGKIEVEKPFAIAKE
In words: biochemical. To be noted: for CypB prolyl-isomerase assay raw dose-response value: Fig. 3b source data, replicates. In short, it runs like this:
as §1

For a further data set, the target named is Cyp40 (Homo sapiens, UniProt Q08752). Briefly: Chymotrypsin coupled prolyl-isomerase assay. The following applies: for Cyp40 prolyl-isomerase assay raw dose-response value: Fig. 3b source data, replicates. The procedure, abridged: as §1
Sequence of Cyp40 (Q08752 1-183): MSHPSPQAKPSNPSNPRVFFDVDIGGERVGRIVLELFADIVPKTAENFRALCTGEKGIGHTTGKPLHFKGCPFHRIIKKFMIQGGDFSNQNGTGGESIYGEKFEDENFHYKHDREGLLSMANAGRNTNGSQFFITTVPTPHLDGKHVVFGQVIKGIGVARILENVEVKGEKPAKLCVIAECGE
Another data set relates to HeLa cells. Briefly: Fluorescence microscopy of Cy5-conjugated compounds. It counts as cell-based, human.
The mark [1] stands for this setting: prolyl-isomerase inhibition, 5 nM cyclophilin, read-out: IC50 CypB.
The mark [2] stands for this setting: wild-type CypB, read-out: Wild-Type Cyclophilin Prolyl Isomerase Inhibition IC50 Values, CypB.
Setting [3] is: Wild-Type Cyclophilin Prolyl Isomerase Inhibition IC50 Values, Cyp40, wild-type Cyp40.

The structures appear in SMILES notation. Values joined by “and” are separate entries in the source; they are usually repeats but may differ in a detail not shown here. Identical values can stand only once. Like-named read-outs stand apart in the source and are kept apart here. A value given as a limit tells only on which side of the number the result lay.

T4 sequence (P30405 45-207 K118E): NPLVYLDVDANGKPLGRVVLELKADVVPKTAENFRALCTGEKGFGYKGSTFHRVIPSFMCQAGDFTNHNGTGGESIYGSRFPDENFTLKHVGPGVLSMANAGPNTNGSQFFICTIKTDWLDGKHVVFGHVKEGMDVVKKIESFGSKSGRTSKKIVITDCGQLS
T3 sequence (P45877 24-212): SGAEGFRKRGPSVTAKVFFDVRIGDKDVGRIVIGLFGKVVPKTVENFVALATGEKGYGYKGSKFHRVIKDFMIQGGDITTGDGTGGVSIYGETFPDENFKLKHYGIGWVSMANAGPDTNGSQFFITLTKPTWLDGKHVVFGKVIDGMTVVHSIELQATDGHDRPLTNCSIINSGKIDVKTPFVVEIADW
T2 sequence (P62937 whole entry E81S/K82R): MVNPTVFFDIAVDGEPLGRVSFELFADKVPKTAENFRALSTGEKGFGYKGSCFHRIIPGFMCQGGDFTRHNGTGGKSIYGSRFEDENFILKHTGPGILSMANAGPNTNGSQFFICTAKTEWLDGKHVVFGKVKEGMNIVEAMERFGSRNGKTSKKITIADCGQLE

Turning to `NCCOCCNC(=O)[C@@H]1CCNC(=O)/C=C/C(=O)N2CCC[C@](Cc3ccccc3)(C2)C(=O)N[C@@H](Cc2ccc(-c3ccc(CCC(=O)O)cc3)cc2)C(=O)NCc2ccccc2CC(=O)N1` [Compound B23], the “NKTR prolyl-isomerase assay raw dose-response value” on NKTR (Dose 0.0201875 µM) was 0.03059 and 0.03481 and 0.04051; at NKTR (Dose 0.0605624 µM) it was 0.03143 and 0.03531 and 0.03914; at NKTR (Dose 0.181687 µM), 0.02923 and 0.03481 and 0.03355; on NKTR (Dose 0.545062 µM), 0.03762 and 0.03481 and 0.03206; on NKTR (Dose 1.63519 µM), 0.03593 and 0.02854 and 0.03455; on NKTR (Dose 4.90556 µM) it was 0.0369 and 0.03251 and 0.03563. Also, the “NKTR prolyl-isomerase assay raw dose-response value” at NKTR (Dose 14.7167 µM) is 0.03118 and 0.02949 and 0.02947; on NKTR (Dose 44.15 µM) it was 0.02842 and 0.02625 and 0.02899. The IC50 at NKTR is more than 100 µM; on CypA E81S/K82R, 23 nM; at CypC, 5000 nM; on CypD K118E it was 180 nM; at CypD R124K, 2.9 nM; at CypD R124A (mutant CypD R124A, read-out: Mutant Cyclophilin Prolyl Isomerase Inhibition IC50 Values, CypD R124A) it was 3 nM. Also, the IC50 worked out at 19 nM on CypE; 70 nM against CypD K118A; 22 nM on CypB (CypB (comparator for CypB E121S), read-out: Mutant Cyclophilin Prolyl Isomerase Inhibition IC50 Values, CypB); 22 ± 4 nM at CypB (setting [1]); 22 nM on CypB (prolyl-isomerase inhibition, read-out: IC50 CypB); 22 nM at CypB (setting [2]). The IC50 against Cyp40 (setting [3]) came out at 1700 nM. The “CypC prolyl-isomerase assay raw dose-response value” on CypC (Dose 0.0201875 µM) is 0.0364 and 0.03611 and 0.04566; on CypC (Dose 0.0605624 µM) it was 0.03688 and 0.04021 and 0.04113; on CypC (Dose 0.181687 µM), 0.04275 and 0.03781 and 0.03638; at CypC (Dose 0.545062 µM), 0.03775 and 0.04123 and 0.03915; at CypC (Dose 1.63519 µM) it was 0.0345 and 0.03482 and 0.03957; at CypC (Dose 4.90556 µM) it was 0.0293 and 0.02714 and 0.0334. Moreover, the “CypC prolyl-isomerase assay raw dose-response value” on CypC (Dose 14.7167 µM) is 0.02525 and 0.02065 and 0.02297; at CypC (Dose 44.15 µM), 0.02045 and 0.01408 and 0.0166. Further, the “CypE prolyl-isomerase assay raw dose-response value” is 0.1029 and 0.09388 and 0.1478 on CypE (Dose 0.00457247 µM); 0.07275 and 0.07554 and 0.1142 at CypE (Dose 0.0137174 µM); 0.04814 and 0.04078 and 0.05584 at CypE (Dose 0.0411523 µM); 0.02663 and 0.02961 and 0.04183 at CypE (Dose 0.123457 µM); 0.01687 and 0.01785 and 0.01578 on CypE (Dose 0.37037 µM); 0.01294 and 0.01514 and 0.0179 on CypE (Dose 1.11111 µM). Besides, the “CypE prolyl-isomerase assay raw dose-response value” at CypE (Dose 3.33333 µM) is 0.01306 and 0.01252 and 0.01422; at CypE (Dose 10 µM), 0.01752 and 0.01195 and 0.01258. Further, the “CypB prolyl-isomerase assay raw dose-response value” at CypB (Dose 0.00457247 µM) is 0.0629 and 0.06607 and 0.09046; on CypB (Dose 0.0137174 µM), 0.04838 and 0.05763 and 0.06969; at CypB (Dose 0.0411523 µM), 0.04508 and 0.04072 and 0.05012; on CypB (Dose 0.123457 µM), 0.03305 and 0.03113 and 0.02819; on CypB (Dose 0.37037 µM) it was 0.02119 and 0.01977 and 0.01945; at CypB (Dose 1.11111 µM), 0.01691 and 0.01533 and 0.01651. Also, the “CypB prolyl-isomerase assay raw dose-response value” at CypB (Dose 3.33333 µM) was 0.01532 and 0.01471 and 0.0137; on CypB (Dose 10 µM) it was 0.01585 and 0.0132 and 0.01359. Besides, the “Cyp40 prolyl-isomerase assay raw dose-response value” was 0.0705 and 0.08875 and 0.06706 on Cyp40 (Dose 0.0201875 µM); 0.06428 and 0.07232 and 0.08253 at Cyp40 (Dose 0.0605624 µM); 0.08019 and 0.07121 and 0.08682 at Cyp40 (Dose 0.181687 µM); 0.05956 and 0.06358 and 0.0778 at Cyp40 (Dose 0.545062 µM); 0.04659 and 0.04863 and 0.05555 on Cyp40 (Dose 1.63519 µM); 0.02767 and 0.03026 and 0.03081 on Cyp40 (Dose 4.90556 µM). In addition, the “Cyp40 prolyl-isomerase assay raw dose-response value” was 0.0182 and 0.01915 and 0.02408 at Cyp40 (Dose 14.7167 µM); 0.01601 and 0.01375 and 0.01814 at Cyp40 (Dose 44.15 µM).

Turning to `NCCCc1ccc(-c2ccc(C[C@@H]3NC(=O)[C@]4(Cc5ccccc5)CCCN(C4)C(=O)/C=C/C(=O)NCC[C@@H](C(=O)NCCOCCN)NC(=O)Cc4ccccc4CNC3=O)cc2)cc1` [Compound B32], the IC50 on NKTR was more than 50 µM; at CypC, 1200 nM; on CypD K118E, 1100 nM; at CypD R124A (prolyl-isomerase inhibition, read-out: IC50 CypD R124A), 700 nM; on CypE it was 7000 nM; on CypB (setting [2]), 3000 nM. Moreover, on Cyp40 (setting [3]), the IC50 amounted to 4000 nM. The “potency improvement on CypD K118E, R124A compared to wild-type CypD” value at CypD K118E (single mutants K118E, R124A) was 5- to 6 fold.

With `C[N+]1=C(C=CC=CC=C2N(CCCCCC(=O)NCCNC(=O)C3CCNC(=O)C=CC(=O)N4CCCC(Cc5ccccc5)(C4)C(=O)NC(Cc4ccc(-c5ccc(C(CC(=O)O)CC(=O)O)cc5)cc4)C(=O)NCc4ccccc4CC(=O)N3)c3ccccc3C2(C)C)C(C)(C)c2ccccc21` (centres unmarked) [Compound B53-Cy5], the IC50 is more than 2 µM at NKTR; more than 2000 nM at CypC; 1100 nM on CypE; approximately 1500 nM at CypB (setting [1]); 1500 nM on CypB (setting [2]); more than 2000 nM on Cyp40 (read-out: Wild-Type Cyclophilin Prolyl Isomerase Inhibition IC50 Values, Cyp40, wild-type Cyp40). Moreover, the “plasma membrane permeability / mitochondrial localization (in words)” value in the data set on HeLa cells was “poor and did not observe efficient plasma membrane permeability”.
